Measured values from PubChem BioAssay AID1259407 (Chemical Carcinogenesis Research Information System (CCRIS), 2018).
Active and inactive are the calls of the source. The rule behind the calls is not given here.

System: CCRIS mutagenicity, Ames/micronucleus/aberration tests
Assay: CCRIS mutagenicity studies

With `C1COCCO1` the mutagenic call (End Point: IN VITRO CHROMOSOMAL ABERRATIONS, Test System: CHINESE HAMSTER OVARY CELLS, Metabolic Activation: NONE) was “inactive; negative”, the mutagenic call (End Point: IN VITRO CHROMOSOMAL ABERRATIONS, Test System: CHINESE HAMSTER OVARY CELLS, Metabolic Activation: RAT, LIVER, S-9, AROCLOR 1254) was “inactive; negative” and the mutagenic call (End Point: IN VIVO MICRONUCLEUS, Test System: BONE MARROW ERYTHROCYTES, Species: MOUSE, Strain/Sex: CD-1/MALE, Route: ORAL (GAVAGE)) was “active; positive”. The mutagenic call (End Point: IN VIVO MICRONUCLEUS, Test System: HEPATOCYTES (BRDU-LABELING), Species: MOUSE, Strain/Sex: CD-1/MALE, Route: ORAL (GAVAGE)) was “active; positive”, the mutagenic call (Test System: AMES SALMONELLA TYPHIMURIUM, Strain/Indicator: TA98, Metabolic Activation: HAMSTER LIVER S-9, PHENOBARBITAL AND BETA-NAPHTHOFLAVONE (10%), Method: PREINCUBATION) was “inactive; negative” and the mutagenic call (Test System: AMES SALMONELLA TYPHIMURIUM, Strain/Indicator: TA98, Metabolic Activation: HAMSTER LIVER S-9, PHENOBARBITAL AND BETA-NAPHTHOFLAVONE (30%), Method: PREINCUBATION) was “inactive; negative”. The mutagenic call (Test System: AMES SALMONELLA TYPHIMURIUM, Strain/Indicator: TA98, Metabolic Activation: NONE, Method: GAS EXPOSURE) was “inactive; negative”, the mutagenic call (Test System: AMES SALMONELLA TYPHIMURIUM, Strain/Indicator: TA98, Metabolic Activation: NONE, Method: PREINCUBATION) was “inactive; negative” and the mutagenic call (Test System: AMES SALMONELLA TYPHIMURIUM, Strain/Indicator: TA98, Metabolic Activation: NONE, Method: STANDARD PLATE) was “inactive; negative”. For the same compound, the mutagenic call (Test System: AMES SALMONELLA TYPHIMURIUM, Strain/Indicator: TA98, Metabolic Activation: RAT LIVER S-9, PHENOBARBITAL AND 5,6-BENZOFLAVONE, Method: PREINCUBATION) was “inactive; negative”, the mutagenic call (Test System: AMES SALMONELLA TYPHIMURIUM, Strain/Indicator: TA98, Metabolic Activation: RAT LIVER S-9, PHENOBARBITAL AND 5,6-BENZOFLAVONE, Method: STANDARD PLATE) was “inactive; negative” and the mutagenic call (Test System: AMES SALMONELLA TYPHIMURIUM, Strain/Indicator: TA98, Metabolic Activation: RAT LIVER S-9, PHENOBARBITAL AND BETA-NAPHTHOFLAVONE (10%), Method: PREINCUBATION) was “inactive; negative”. The mutagenic call (Test System: AMES SALMONELLA TYPHIMURIUM, Strain/Indicator: TA98, Metabolic Activation: RAT LIVER S-9, PHENOBARBITAL AND BETA-NAPHTHOFLAVONE (30%), Method: PREINCUBATION) was “inactive; negative”, the mutagenic call (Test System: AMES SALMONELLA TYPHIMURIUM, Strain/Indicator: TA98, Metabolic Activation: RAT LIVER S-9, PHENOBARBITAL AND BETA-NAPHTHOFLAVONE, Method: GAS EXPOSURE) was “inactive; negative” and the mutagenic call (Test System: AMES SALMONELLA TYPHIMURIUM, Strain/Indicator: TA100, Metabolic Activation: HAMSTER LIVER S-9, PHENOBARBITAL AND BETA-NAPHTHOFLAVONE (10%), Method: PREINCUBATION) was “inactive; negative”. The mutagenic call (Test System: AMES SALMONELLA TYPHIMURIUM, Strain/Indicator: TA100, Metabolic Activation: HAMSTER LIVER S-9, PHENOBARBITAL AND BETA-NAPHTHOFLAVONE (30%), Method: PREINCUBATION) was “inactive; negative”, the mutagenic call (Test System: AMES SALMONELLA TYPHIMURIUM, Strain/Indicator: TA100, Metabolic Activation: NONE, Method: GAS EXPOSURE) was “inactive; negative” and the mutagenic call (Test System: AMES SALMONELLA TYPHIMURIUM, Strain/Indicator: TA100, Metabolic Activation: NONE, Method: PREINCUBATION) was “inactive; negative”. The mutagenic call (Test System: AMES SALMONELLA TYPHIMURIUM, Strain/Indicator: TA100, Metabolic Activation: NONE, Method: STANDARD PLATE) was “inactive; negative”, the mutagenic call (Test System: AMES SALMONELLA TYPHIMURIUM, Strain/Indicator: TA100, Metabolic Activation: RAT LIVER S-9, PHENOBARBITAL AND 5,6-BENZOFLAVONE, Method: PREINCUBATION) was “inactive; negative” and the mutagenic call (Test System: AMES SALMONELLA TYPHIMURIUM, Strain/Indicator: TA100, Metabolic Activation: RAT LIVER S-9, PHENOBARBITAL AND 5,6-BENZOFLAVONE, Method: STANDARD PLATE) was “inactive; negative”. The mutagenic call (Test System: AMES SALMONELLA TYPHIMURIUM, Strain/Indicator: TA100, Metabolic Activation: RAT LIVER S-9, PHENOBARBITAL AND BETA-NAPHTHOFLAVONE (10%), Method: PREINCUBATION) was “inactive; negative”, the mutagenic call (Test System: AMES SALMONELLA TYPHIMURIUM, Strain/Indicator: TA100, Metabolic Activation: RAT LIVER S-9, PHENOBARBITAL AND BETA-NAPHTHOFLAVONE (30%), Method: PREINCUBATION) was “inactive; negative” and the mutagenic call (Test System: AMES SALMONELLA TYPHIMURIUM, Strain/Indicator: TA100, Metabolic Activation: RAT LIVER S-9, PHENOBARBITAL AND BETA-NAPHTHOFLAVONE, Method: GAS EXPOSURE) was “inactive; negative”. For the same compound, the mutagenic call (Test System: AMES SALMONELLA TYPHIMURIUM, Strain/Indicator: TA1535, Metabolic Activation: HAMSTER LIVER S-9, PHENOBARBITAL AND BETA-NAPHTHOFLAVONE (10%), Method: PREINCUBATION) was “inactive; negative”, the mutagenic call (Test System: AMES SALMONELLA TYPHIMURIUM, Strain/Indicator: TA1535, Metabolic Activation: HAMSTER LIVER S-9, PHENOBARBITAL AND BETA-NAPHTHOFLAVONE (30%), Method: PREINCUBATION) was “inactive; negative” and the mutagenic call (Test System: AMES SALMONELLA TYPHIMURIUM, Strain/Indicator: TA1535, Metabolic Activation: NONE, Method: GAS EXPOSURE) was “inactive; negative”. For the same compound, the mutagenic call (Test System: AMES SALMONELLA TYPHIMURIUM, Strain/Indicator: TA1535, Metabolic Activation: NONE, Method: PREINCUBATION) was “inactive; negative”, the mutagenic call (Test System: AMES SALMONELLA TYPHIMURIUM, Strain/Indicator: TA1535, Metabolic Activation: NONE, Method: STANDARD PLATE) was “inactive; negative” and the mutagenic call (Test System: AMES SALMONELLA TYPHIMURIUM, Strain/Indicator: TA1535, Metabolic Activation: RAT LIVER S-9, PHENOBARBITAL AND 5,6-BENZOFLAVONE, Method: PREINCUBATION) was “inactive; negative”. The mutagenic call (Test System: AMES SALMONELLA TYPHIMURIUM, Strain/Indicator: TA1535, Metabolic Activation: RAT LIVER S-9, PHENOBARBITAL AND 5,6-BENZOFLAVONE, Method: STANDARD PLATE) was “inactive; negative” and the mutagenic call (Test System: AMES SALMONELLA TYPHIMURIUM, Strain/Indicator: TA1535, Metabolic Activation: RAT LIVER S-9, PHENOBARBITAL AND BETA-NAPHTHOFLAVONE (10%), Method: PREINCUBATION) was “inactive; negative”.
